Data taken from PubChem BioAssay AID1918934 (Molecular Pharmacology Branch, DTP, NCI, 2023).
pIC50: −log10 of the molar value. Several values for one entry are separate records, joined by “and”; a condition that tells them apart may be missing. Identical values can stand only once.

System: 292921-168-R-J2-PDC complex spheroid viability
Assay: Anticancer human tumor 292921-168-R-J2-PDC patient-derived pancreatic carcinoma cell line growth inhibition
Settings: for viability, T/C: stronger effect = lower value
Summary of the method: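 Drug combinations with the LSD1 inhibitor iadademstat tested on tumor cells co-cultured as spheroids with endothelial cells and mesenchymal stem cells. Concentrations descended in half-log increments from clinical Cmax or 10 microM.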

[1] = curve of first compound, second compound 0.1 µM
[2] = curve of first compound, second compound 0.316 µM
[3] = curve of first compound, second compound 1 µM
[4] = curve of first compound, second compound 3.16 µM
[5] = curve of first compound, second compound 10 µM
[6] = second compound 0.1 µM, first compound 0.00316 µM
[7] = second compound 0.1 µM, first compound 0.01 µM
[8] = second compound 0.1 µM, first compound 0.0316 µM
[9] = second compound 0.1 µM, first compound 0.1 µM
[10] = second compound 0.316 µM, first compound 0.00316 µM
[11] = second compound 0.316 µM, first compound 0.01 µM
[12] = second compound 0.316 µM, first compound 0.0316 µM
[13] = second compound 0.316 µM, first compound 0.1 µM
[14] = second compound 1 µM, first compound 0.00316 µM
[15] = second compound 1 µM, first compound 0.01 µM
[16] = second compound 1 µM, first compound 0.0316 µM
[17] = second compound 1 µM, first compound 0.1 µM
[18] = second compound 3.16 µM, first compound 0.00316 µM
[19] = second compound 3.16 µM, first compound 0.01 µM
[20] = second compound 3.16 µM, first compound 0.0316 µM
[21] = second compound 3.16 µM, first compound 0.1 µM
[22] = second compound 10 µM, first compound 0.00316 µM
[23] = second compound 10 µM, first compound 0.01 µM
[24] = second compound 10 µM, first compound 0.0316 µM
[25] = second compound 10 µM, first compound 0.1 µM
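Further: seven day compound exposure before luminescent viability read.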
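Wherever viability, T/C is given: 100% = DMSO vehicle control wells.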

NC1CCC(NC2CC2c2ccccc2)CC1 (centres undefined) was tested, and the viability, T/C (compound 0.1 µM) was 65.7% [middle of 25 runs], the viability, T/C (compound 0.316 µM) was 56.6% and 63.5% and the viability, T/C (compound 1 µM) was 58% [middle of 25 runs]. The viability, T/C (compound 3.16 µM) was 57.4% [middle of 25 runs] and the viability, T/C (compound 10 µM) was 54.2% [middle of 23 runs].

In the case of COc1cc(Nc2ncc3c(n2)-c2ccc(Cl)cc2C(c2c(F)cccc2OC)=NC3)ccc1C(=O)O + NC1CC1c1ccc(-c2cccc(O)c2)cc1, the pIC50 [1] was over 8.50, the pIC50 [2] was over 8.50 and the pIC50 [3] was over 8.50. It also gave a pIC50 [4] of over 8.50, a pIC50 [5] of over 8.50 and a viability, T/C [6] of 36.8%. It also gave a viability, T/C [7] of 40.9%, a viability, T/C [8] of 37.5% and a viability, T/C [9] of 31.9%. It also gave a viability, T/C (second compound 0.1 µM, first compound 0.316 µM) of 24.1%, a viability, T/C (second compound 0.1 µM, first compound 1 µM) of 16.4% and a viability, T/C [10] of 39.2%. For the same compound, the viability, T/C [11] was 44.5%, the viability, T/C [12] was 37.5% and the viability, T/C [13] was 31.4%. It also gave a viability, T/C (second compound 0.316 µM, first compound 0.316 µM) of 24.8%, a viability, T/C (second compound 0.316 µM, first compound 1 µM) of 16.5% and a viability, T/C [14] of 37.2%. The viability, T/C [15] was 35.9%, the viability, T/C [16] was 34.6% and the viability, T/C [17] was 26%. For the same compound, the viability, T/C (second compound 1 µM, first compound 0.316 µM) was 20.2%, the viability, T/C (second compound 1 µM, first compound 1 µM) was 15.9% and the viability, T/C [18] was 30.4%. For the same compound, the viability, T/C [19] was 36.5%, the viability, T/C [20] was 35.2% and the viability, T/C [21] was 28.1%. It also gave a viability, T/C (second compound 3.16 µM, first compound 0.316 µM) of 23.7%, a viability, T/C (second compound 3.16 µM, first compound 1 µM) of 15% and a viability, T/C [22] of 34.2%. The viability, T/C [23] was 32.7%, the viability, T/C [24] was 34.2% and the viability, T/C [25] was 28%. For the same compound, the viability, T/C (second compound 10 µM, first compound 0.316 µM) was 19.4% and the viability, T/C (second compound 10 µM, first compound 1 µM) was 14.9%.

For CC(C)CC(NC(=O)CNC(=O)c1cc(Cl)ccc1Cl)B1OC(=O)CC(CC(=O)O)(C(=O)O)O1 (centres undefined) + NC1CC1c1ccc(-c2cccc(O)c2)cc1, the pIC50 [1] was 8.24, the pIC50 [2] was 8.26 and the pIC50 [3] was 8.32. It also gave a pIC50 [4] of 8.33, a pIC50 [5] of 8.44 and a viability, T/C (second compound 0.1 µM, first compound 0.000316 µM) of 88.2%. The viability, T/C (second compound 0.1 µM, first compound 0.001 µM) was 93.4%, the viability, T/C [6] was 81.5% and the viability, T/C [7] was 19.6%. For the same compound, the viability, T/C [8] was 3.61%, the viability, T/C [9] was 1.34% and the viability, T/C (second compound 0.316 µM, first compound 0.000316 µM) was 80%. For the same compound, the viability, T/C (second compound 0.316 µM, first compound 0.001 µM) was 84.3%, the viability, T/C [10] was 80.4% and the viability, T/C [11] was 17.9%. It also gave a viability, T/C [12] of 3.08%, a viability, T/C [13] of 1.87% and a viability, T/C (second compound 1 µM, first compound 0.000316 µM) of 66.2%. For the same compound, the viability, T/C (second compound 1 µM, first compound 0.001 µM) was 74%, the viability, T/C [14] was 68.2% and the viability, T/C [15] was 17.2%. For the same compound, the viability, T/C [16] was 3.17%, the viability, T/C [17] was 1.85% and the viability, T/C (second compound 3.16 µM, first compound 0.000316 µM) was 70.7%. It also gave a viability, T/C (second compound 3.16 µM, first compound 0.001 µM) of 71.2%, a viability, T/C [18] of 67.8% and a viability, T/C [19] of 14.5%. It also gave a viability, T/C [20] of 2.89%, a viability, T/C [21] of 1.44% and a viability, T/C (second compound 10 µM, first compound 0.000316 µM) of 61.6%. It also gave a viability, T/C (second compound 10 µM, first compound 0.001 µM) of 67.1%, a viability, T/C [22] of 55.4% and a viability, T/C [23] of 11.8%. The viability, T/C [24] was 2.07% and the viability, T/C [25] was 0.75%.

With CCc1c2c(nc3ccc(O)cc13)-c1cc3c(c(=O)n1C2)COC(=O)[C@]3(O)CC the viability, T/C (compound 0.000949 µM) was 5.38% and 4.72%, the viability, T/C (compound 0.003 µM) was 3.5% and 2.75% and the viability, T/C (compound 0.00949 µM) was 1.25% and 1.31%. For the same compound, the viability, T/C (compound 0.03 µM) was 0.84% and 1.16%, the viability, T/C (compound 0.0949 µM) was 1.07% and 1.04% and the viability, T/C (compound 0.3 µM) was 0.92% and 1.24%. For the same compound, the pIC50 (curve of compound) was over 9.02.

CC1COCCN1c1cc(-c2ccnn2C)c2ccnc(-c3ccn[nH]3)c2n1 (centres undefined) was tested, and the viability, T/C (compound 0.00316 µM) was 15.4% and 15.1%, the viability, T/C (compound 0.01 µM) was 12.8% and 16.4% and the viability, T/C (compound 0.0316 µM) was 12.4% and 13%. For the same compound, the viability, T/C (compound 0.1 µM) was 16.3% and 14.8%, the viability, T/C (compound 0.316 µM) was 17.2% and 17.7% and the viability, T/C (compound 1 µM) was 17.8% and 18.7%. The pIC50 (curve of compound) was over 8.50.
